Data taken from the supplement of paper PMC7600603.

What was measured:
Details in all cases: 72 h; CellTox Green cytotoxicity
[1] = system: DLD1 NRF2-WT; test: TC50 cytotoxicity; higher = less toxic
How it was run: (§1)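 Isogenic DLD1 colorectal cancer cells, either NRF2 wild-type or CRISPR gain-of-function, were grown in DMEM with 10% FBS. They were exposed in 384-well plates to library compounds at 5 concentrations spanning a 10,000-fold range. After 72 h, cytotoxicity was read by CellTox Green on a Pherastar FS reader and normalised to vehicle wells and 100-μM positive-control wells. TC50 and drug sensitivity score (a normalised area under the curve) came from logistic dose-response fits.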

[2] = system: DLD1 NRF2-GOF; test: TC50 cytotoxicity; higher = less toxic
How it was run: as §1

[3] = system: DLD1 NRF2-WT; test: drug sensitivity score (DSS) cytotoxicity (DSS score); higher = more toxic; extreme values may be limits of the assay
How it was run: as §1

[4] = system: DLD1 NRF2-GOF; test: as above
How it was run: as §1

Compound | TC50 cytotoxicity [1] | TC50 cytotoxicity [2] | drug sensitivity score [3] | drug sensitivity score [4]
CNS(=O)(=O)Nc1nccc(Cc2c(C)c3ccc(Oc4ncccn4)cc3oc2=O)c1F | > 1 µM | > 1 µM | 0 | 0
COc1ccc(Cn2ccc3ccc(C(=O)NO)cc32)cc1 | > 10 µM | > 10 µM | 0 | 0
Cc1c(-c2ccc(N3CCc4cccc(C(=O)Nc5nc6ccccc6s5)c4C3)nc2C(=O)O)cnn1CC12CC3CC(CC(C3)C1)C2 |  | > 1 µM |  | 0
Cn1cc(-c2ccc(F)c(C(F)(F)F)c2)nc1C1CCN(c2ncnc3[nH]ncc23)CC1 | > 10 µM | > 10 µM | 0 | 0
CC(C)[C@@H](CS(=O)(=O)C(C)C)N1C(=O)[C@@](C)(CC(=O)O)C[C@H](c2cccc(Cl)c2)[C@H]1c1ccc(Cl)cc1 [AMG-232] | > 10 µM | > 10 µM | 0 | 0
CN(C)CCCOc1ccc(-c2ccc3ncc4c(c3c2)n(C2CCOCC2)c(=O)n4C)cn1 [AZD0156] | > 1 µM | > 1 µM | 0 | 0
Cc1cc(Nc2nc(N[C@@H](C)c3ncc(F)cn3)ncc2Cl)[nH]n1 [AZD1480] | > 1 µM | > 1 µM | 0 | 0
COc1cc2ncnc(Nc3cccc(Cl)c3F)c2cc1OC(=O)N1CCN(C)C[C@H]1C [AZD3759] | > 1 µM | > 1 µM | 0 | 0
N#Cc1ccc2[nH]c(O)c(-c3ccc(CN4CCOCC4)cn3)c2c1 [AZD-1080] | > 10 µM | > 10 µM | 0 | 0
C[C@]12CC[C@H](O)CC1=CC[C@@H]1[C@@H]2CC[C@]2(C)C(c3cccnc3)=CC[C@@H]12 [Abiraterone] | > 5 µM | > 5 µM | 0 | 0
CCN(CC)CCNC(=O)c1c(C)[nH]c(/C=C2\C(=O)Nc3ccc(-c4csc(-c5ccccc5)n4)cc32)c1C [Amcasertib] | > 10 µM | > 10 µM | 0 | 0
CCC1(c2ccc(N)cc2)CCC(=O)NC1=O (stereo unspecified) [Aminoglutethimide] | > 10 µM | > 10 µM | 0 | 0
N#CC1(c2ccc(NC(=O)c3cccnc3NCc3ccncc3)cc2)CCCC1 [Apatinib] | > 10 µM | > 10 µM | 0 | 0
Nc1nc(Nc2ccc3c(c2)CC[C@@H](N2CCCC2)CC3)nn1-c1cc2c(nn1)-c1ccccc1CCC2 [BGB324] | > 10 µM | > 10 µM | 0 | 0
O=C(Nc1cccc(Nc2ncc(Br)c(NCCc3cnc[nH]3)n2)c1)N1CCCC1 [BX-912] | > 10 µM | > 10 µM | 2.2 | 2.5
Cc1ccc(NC(=O)c2ccc(CN3CC[C@H](N(C)C)C3)c(C(F)(F)F)c2)cc1Nc1nccc(-c2cncnc2)n1 [Bafetinib] | > 1 µM | > 1 µM | 0 | 0
CCS(=O)(=O)N1CC(CC#N)(n2cc(-c3ncnc4[nH]ccc34)cn2)C1 [Baricitinib] | > 2.5 µM | > 2.5 µM | 0 | 0
CC(O)(CS(=O)(=O)c1ccc(F)cc1)C(=O)Nc1ccc(C#N)c(C(F)(F)F)c1 (stereo unspecified) [Bicalutamide] | > 10 µM | > 10 µM | 0 | 0
Cn1cnc2c(F)c(Nc3ccc(Br)cc3F)c(C(=O)NOCCO)cc21 [Binimetinib] | > 1 µM | > 1 µM | 0 | 0
Cc1sc2c(c1C)C(c1ccc(Cl)cc1)=N[C@@H](CC(=O)Nc1ccc(O)cc1)c1nnc(C)n1-2 [Birabresib] | > 10 µM | > 10 µM | 0 | 0

Compound | TC50 cytotoxicity [1] | TC50 cytotoxicity [2] | drug sensitivity score [3] | drug sensitivity score [4]
CCN1C(=O)CNc2ncc(-c3ccc(-c4nc[nH]n4)nc3C)nc21 [CC-115] |  | > 10 µM | 1.4 | 0.1
O=C(O)CCCCC(CCSCc1ccccc1)SCc1ccccc1 (stereo unspecified) [CPI-613] | > 10 µM | > 10 µM | 0 | 0
CN(C)c1cc2c(cc1Sc1nc3c(N)nccc3n1CCNCC(C)(C)C)OCO2 [CUDC-305] | > 10 µM | > 10 µM | 0 | 0
CCCCCOC(=O)Nc1nc(=O)n([C@@H]2O[C@H](C)[C@@H](O)[C@H]2O)cc1F [Capecitabine] | > 10 µM | > 10 µM | 0 | 0
Cc1ccc(-c2cc(C(F)(F)F)nn2-c2ccc(S(N)(=O)=O)cc2)cc1 [Celecoxib] | > 10 µM | > 10 µM | 0 | 0
CC(C)(O)CNc1nc(Nc2ccnc(C(F)(F)F)c2)nc(-c2cccc(C(F)(F)F)n2)n1 [Enasidenib] | > 10 µM | > 10 µM | 0 | 0
CN1CCN(c2ccc(C(=O)Nc3n[nH]c4ccc(Cc5cc(F)cc(F)c5)cc34)c(NC3CCOCC3)c2)CC1 [Entrectinib] | > 1 µM | > 1 µM | 0 | 0
C[C@]12CC[C@@H]3c4ccc(O)cc4C[C@@H](CCCCCCCCC[S+]([O-])CCCC(F)(F)C(F)(F)F)[C@H]3[C@@H]1CC[C@@H]2O (stereo partly specified) [Fulvestrant] | > 1 µM | > 1 µM | 0 | 0
Cn1nccc1Nc1nccc(-c2ccn([C@H](CO)c3ccc(Cl)c(F)c3)c(=O)c2)n1 [GDC-0994] | > 10 µM | > 10 µM | 0 | 0
CCCOc1ccn2c(C(C)=O)cc(-c3ccccc3S(C)(=O)=O)c2c1 [GSK2801] | > 10 µM | > 10 µM | 0 | 0
CCN(CC)Cc1ccc2cc(COC(=O)Nc3ccc(C(=O)NO)cc3)ccc2c1 [Givinostat] | 0.344 µM | > 1 µM | 1.6 | 0
CN1CC[C@@H](NC(=O)Nc2ccc(C#N)cc2)C[C@@H]1c1nc2ccccc2[nH]1 [Glasdegib] | > 1 µM | > 1 µM | 0 | 0
COCCNCc1ccc(-c2cc3nccc(Oc4ccc(NC(=S)NC(=O)Cc5ccc(F)cc5)cc4F)c3s2)nc1 [Glesatinib] | > 2.5 µM | > 2.5 µM | 0 | 0
COc1cc(C(=O)O)ccc1NC(=O)[C@@H]1N[C@@H](CC(C)(C)C)[C@](C#N)(c2ccc(Cl)cc2F)[C@H]1c1cccc(Cl)c1F [Idasanutlin] | > 10 µM | > 10 µM | 0 | 0
NC(=O)/C(=C/n1cnc(-c2cc(C(F)(F)F)cc(C(F)(F)F)c2)n1)c1cncnc1 [KPT-8602] | > 10 µM | > 10 µM | 0 | 0
Nc1cccc2c1CN(C1CCC(=O)NC1=O)C2=O (stereo unspecified) [Lenalidomide] | > 100 µM | > 100 µM | 0 | 0
CCNCCS(=O)(=O)NC[C@@]1(c2ccccc2)SC(NC(=O)C(C)(C)C)=NN1C(=O)C(C)(C)C [Litronesib] | > 1 µM | > 1 µM | 0 | 1.6
Nc1nc(OCc2cc(Br)cs2)c2[nH]cnc2n1 [Lomeguatrib] | > 10 µM | > 10 µM | 0 | 0
Cc1c(F)cc(C(=O)NC2CC2)cc1-c1ccc(C(=O)NCC(C)(C)C)cn1 [Losmapimod] | > 10 µM | > 10 µM | 0 | 0
O=C(c1cccc(Cl)c1F)N1CCN(Cc2cccc(Nc3nccs3)n2)CC1 [MK-8745] |  | 1.55 µM | 2 | 2.9

Compound | TC50 cytotoxicity [1] | TC50 cytotoxicity [2] | drug sensitivity score [3] | drug sensitivity score [4]
Nc1nc2cc(-c3ccc4ncc(C(=O)N5CCOCC5)n4c3)ccc2o1 [MLN1117] | > 10 µM | > 10 µM | 0 | 0
CNC(=O)[C@@H](NC(=O)[C@H](CC(C)C)[C@H](O)C(=O)NO)C(C)(C)C [Marimastat] | > 10 µM | > 10 µM | 0 | 0
Cc1cc(-c2ncc(CC(=O)Nc3ccc(-c4cnccn4)cn3)cc2C)ccn1 [NVP-LGK974] | > 10 µM | > 10 µM | 0 | 0
COc1nc(N)nc2c1ncn2[C@@H]1O[C@H](CO)[C@@H](O)[C@@H]1O [Nelarabine] | > 10 µM | > 10 µM | 0 | 0
NC(=O)c1cccc2cn(-c3ccc(C4CCCNC4)cc3)nc12 (stereo unspecified) [Niraparib] | > 10 µM | > 10 µM | 0 | 0
CC#CC(=O)N1CC[C@@H](n2c(=O)n(-c3ccc(Oc4ccccc4)cc3)c3c(N)ncnc32)C1 [ONO-4059] | > 1 µM | > 1 µM | 0 | 0
CC1(C)CC[C@]2(NC(=O)C(C)(F)F)CC[C@]3(C)[C@H](C(=O)C=C4[C@@]5(C)C=C(C#N)C(=O)C(C)(C)[C@@H]5CC[C@]43C)[C@@H]2C1 [Omaveloxolone] | > 10 µM | > 10 µM | 0 | 0
CC(C)c1cc(C(=O)N2Cc3ccc(CN4CCN(C)CC4)cc3C2)c(O)cc1O [Onalespib] | > 2.5 µM | > 2.5 µM | 0 | 0
CN1CCN(c2cc(C(=O)Nc3ccc4c(c3)-c3c(c(C(N)=O)nn3-c3ccc(F)cc3)CC4)c(Cl)cn2)CC1 [PHA 408] | > 10 µM | > 10 µM | 0 | 0
NS(=O)(=O)OC[C@@H]1C[C@@H](n2ccc3c(N[C@H]4CCc5ccccc54)ncnc32)C[C@@H]1O [Pevonedistat] | > 10 µM | > 10 µM | 0 | 0
Cn1cc(CNCC2CCN(c3ncc(C(=O)NO)cn3)CC2)c2ccccc21 [Quisinostat] | 0.135 µM | > 1 µM | 5.1 | 0
CC(C)(C)c1cc(NC(=O)Nc2ccc(-c3cn4c(n3)sc3cc(OCCN5CCOCC5)ccc34)cc2)no1 [Quizartinib] | > 1 µM | > 1 µM | 0 | 0
CCOC(=O)C1=CCCC[C@H]1S(=O)(=O)Nc1ccc(F)cc1Cl [Resatorvid] | > 10 µM | > 10 µM | 0 | 0
CN(C)Cc1ccc(S(=O)(=O)n2ccc(/C=C/C(=O)NO)c2)cc1 [Resminostat] | > 10 µM | > 10 µM | 0 | 0
C[C@H]1CNCCCN1S(=O)(=O)c1cccc2cncc(F)c12 [Ripasudil] | > 10 µM | > 10 µM | 0 | 0
O=C(CCCCCCNC(=O)c1cnc(N(c2ccccc2)c2ccccc2)nc1)NO [Rocilinostat] | > 10 µM | > 10 µM | 0 | 0
CN(CC(=O)N(Cc1ccc(C2CCCCC2)cc1)c1ccc(C(=O)O)cc1)S(=O)(=O)c1c(F)c(F)c(F)c(F)c1F [SH-4-54] | > 25 µM | > 25 µM | 0 | 0
Cc1cc2c(C(=O)NC[C@H](C)c3ccccc3)c(O)c(O)cc2c(O)c1-c1c(C)cc2c(C(=O)NC[C@H](C)c3ccccc3)c(O)c(O)cc2c1O [Sabutoclax] | > 25 µM | > 25 µM | 0 | 0
CC(C)C[C@@H](C(=O)N[C@H](C(=O)OC1CCCC1)c1ccccc1)[C@H](O)C(=O)NO [Tosedostat] |  | > 10 µM | 4.9 | 4.6
